Laboratory results taken from patent US8829014B2, “Thiazole and thiophene analogues, and their use in treating autoimmune diseases and cancers” (Board of Supervisors of Louisiana State University and …, priority 2006, dated 2014).
Marks after values point to notes of the source that are not given here.

Assays:
Type in all cases: cell-based
ARE from TNF-α = test: ARE screen: luciferase under post-transcriptional control of the ARE from TNF-α in RAW 264.7 cells; details: six concentrations 10 nM-3300 nM, 24 hr (FIG. 10)
Text: Development of ARE Screen: The regulation of TNF-α and other cytokines that are involved in inflammation and cancer progression occurs, in part, at the post-transcriptional level through an AU-rich element in the 3′ UTR called ARE. The ARE regulates both the stability and the translational efficiency of the mRNA and thus represents a potential target for novel anti-inflammatory molecules. The 3′ UTR from TNF-α, which contains the ARE, was cloned in the proper orientation and used to screen a compound library as reported in reference 55. Briefly, the 3′ UTR was cloned into pMS 110, and both the UTR and parental plasmids were stably transfected into RAW264.7 cells, a macrophage cell line. Individual clones were propagated and tested for luciferase activity. […] The UTR-containing clones responded to LPS by inducing luciferase expression similar to the endogenous increase in TNF-α following LPS stimulation. […] Thus, molecules identified with this screening assay are also useful as anti-cancer agents. By analogy, thalidomide, which has been reported to work in part through posttranscriptional regulation of TNF-α, has been approved for the treatment of multiple myeloma and is now in development for the treatment of cancers.
As in the eIF4E assay, AREs are responsible for post-transcriptional regulation of gene expression, influencing both translation and mRNA stability. […]

[1] = MTT viability in skin cell line pair, tumorigenic and non-tumorigenic; details: human
Protocol: (§1) Additional compounds have also been tested for their ability to inhibit both TNF-α-induced NF-κB—expression and PMA-induced AP-1 expression. In both tests, the compound was added for 1 h, then the appropriate inducer was added, and luciferase activity was monitored 24 h later. Values were then normalized to the vehicle control, DMSO. Following the initial luciferase screens, studies were conducted to assess the cytotoxicity of the compounds in normal cells such as VSMC, HUVEC, or HPT cells. Human umbilical vein endothelial cells (HUVEC) represent the normal endothelium, vascular smooth muscle cells (VSMC) were represented by cells from the adult rat aorta, and human proximal tubule (HPT) cells represent the normal proximal tubule in vivo. These cells were grown to near confluency in multi-well plates, and were then treated for 48 h with either vehicle (0.1% DMSO) or 10 μM of each drug candidate. Following treatment, the media from the VSMC and HUVEC incubations were removed, and the amount of lactate dehydrogenase (LDH) released into the medium was determined with a commercial kit. LDH is normally confined to the cytosol, and its release represents “leakiness” of the plasma membrane. LDH activity was expressed as % increase over vehicle-treated cells. In another assay of viability, the treated VSMC and HUVEC were removed by trypsinization and treated with trypan blue, a dye that is taken up only by dead cells. The number of both live and dead cells was counted using an automated cell viability analyzer. The % decrease in numbers of viable cells was determined. Toxicity in the treated HPT cells was determined by the ethidium homodimer (EthHD) uptake assay. EthHD is a fluorescent dye that is excluded from live cells, but is taken up by cells that have lost permeability barriers. Inside the cell, EthHD produces a strong fluorescent signal, which is proportional to the number of dead cells. Results were expressed as a % increase in cell death over vehicle-treated cells. The lead compounds were also tested in two pairs of cell lines from either the skin or prostate, one tumorigenic and one non-tumorigenic, to test for any differences in toxicity or heightened sensitivity in the tumorigenic lines. The cells were treated for 48 h with vehicle (0.1% DMSO) or 10 μM of each drug candidate. Following treatment, the viability of the cells was determined by the MTT assay. In this assay, the MTT dye is converted only in viable cells by intracellular enzymes to a colorimetric product that is quantitated by a microplate reader.
(§2) For the results in Table 13, cells were grown to near confluency in multi-well plates, then treated for 48 h with either vehicle (0.1% DMSO) or 10 μM of each drug candidate. Following treatment, the media from the VSMC and HUVEC incubations were removed, and the amount of lactate dehydrogenase (LDH) released into the medium was determined with a commercial kit and expressed as a % increase over vehicle-treated cells. HPT toxicity was determined by the ethidium homodimer (EthHD) uptake assay. Inside the cell, EthHD produces a strong fluorescent signal, which is proportional to the amount of cell death, expressed as a % increase in cell death over vehicle-treated cells. The lead compounds were also tested in two pairs of cell lines from the skin or prostate, one tumorigenic and one non-tumorigenic, to test for differing toxicity or heightened sensitivity in the tumorigenic lines. The cells were treated for 48 h with vehicle (0.1% DMSO) or 10 μM of each drug candidate, and the viability of the cells was determined by the MTT assay, expressed as a % decrease in viability compared to vehicle-treated cells. The in vivo inflammation model measured the % inhibition of rat paw edema induced by carageenan injection.

[2] = test system: Human umbilical vein endothelial cells (HUVEC); test: Trypan blue viability count in HUVEC; details: human, 48 h, 10 μM
Protocol: as §1

[3] = test system: Human umbilical vein endothelial cells (HUVEC); test: LDH release cytotoxicity in HUVEC; details: human, 48 h, 10 μM
Protocol: as §1, §2

[4] = test system: vascular smooth muscle cells (VSMC); test: LDH release cytotoxicity in VSMC; details: rat, 48 h, 10 μM
Protocol: as §1, §2

FaDu cells = test system: FaDu cells
Text: […]. Values greater than 1.0 indicate activation, and values less than 1.0 indicate inhibition.) The compounds that inhibited luciferase translation might, potentially, act by generally inhibiting translation, by reducing cell numbers through inhibition of growth or by cell toxicity, or specifically by inhibiting highly cap-dependent translation. To analyze any general effects on cell viability, fourteen compounds were selected that altered luciferase activity (including a few that increased activity) to test for any effects on cell number. An MTT assay was used to monitor compounds for inhibition of cell growth and cell toxicity. The compounds were tested once in a six-point dose-response assay starting at 10 nM and increasing to 3.3 μM. FaDu cells were plated in a 96-well plate for 24 hr before addition of the compounds. Each compound was added in each of six concentrations (10 nM, 30 nM, 100 nM, 330 nM, 1000 nM, and 3300 nM), and each concentration was tested in triplicate. In addition, DMSO was used as a control. After incubating for 24 hr, the cell number was measured using the MTT assay.

COc1ccc(-n2c(-c3sc(Nc4ccc(Cl)cc4)nc3-c3ccccc3)nc3ccccc3c2=O)cc1 [Example 225, 2-[2-(4-Chloro-phenylamino)-4-phenyl-thiazol-5-yl]-3-(4-methoxyphenyl)-3H-quinazolin-4-one]
luciferase expression in the presence of ARE (ARE from TNF-α): substantial dose response

CNc1nc(C)c(-c2nc3ccccc3c(=O)n2-c2ccc(Cl)cc2)s1 [Example 244, 2-(4-Methyl-2-methylamino-thiazol-5-yl)-3-(4-chloro-phenyl)-3H-quinazolin-4-one]
cytotoxicity at 48 h, 10 μM ([1]; Viability (MTT) % Decrease HaCaT): 25% | cytotoxicity at 48 h, 10 μM ([1]; Viability (MTT) % Decrease SRB12-p9): 28% | Viable Cells % Decrease HUVEC [2]: 63# % | LDH release % Increase HUVEC [3]: 124# % | LDH release % Increase VSMC [4]: 68# %

Bis-[2-(4-Chloro-phenylamino)-4-benzayl-thiazole-5-yl]-methanone [Example 134]
inhibition of cell viability (FaDu cells): ~20%
